# From patent publication US12714718B2, “Treatment of 22Q11.2 deletion syndrome with cannabidiol” (priority 2018, dated 2026)
# Assays:
# [1] = system: children and adolescents with 22q11.2 Deletion Syndrome; experiment: Pediatric Anxiety Rating Scale (PARS), open-label ZYN002 study; type: in vivo, human; settings: Week 14
# Description: (§1) Methodology: This was an open-label study to assess the safety, tolerability and efficacy of CBD administered as ZYN002, a transdermal gel, for the treatment of child and adolescent patients with 22q11.2 deletion syndrome. Male and female patients with 22q11.2 deletion syndrome were treated in Period 1 for 14 weeks with 250 mg and 500 mg of CBD (patients ≤35 kg received 250 mg CBD daily; patients >35 kg received 500 mg CBD daily). For patients with less than a 25% improvement from baseline in the ABC-C irritability subscale, the investigator could increase the total daily dose at Week 6 of treatment. Twenty male and female patients, ages 6 to <18 years, received ZYN002.
# Pediatric Anxiety Rating Scale (PARS): The PARS is a clinician-rated caregiver interview that covers 61 behaviors related to anxiety (Riddle M A, et al, The Pediatric Anxiety Rating Scale (PARS) Development and Psychometric Properties, J. Am. Acad. Child Adolesc. Psychiatry, 2002, 4(9):1061-1069). The PARS provides broad coverage of separation anxiety, social phobia, and generalized anxiety. […] The interviewer assesses the severity by quantifying the frequency and degree of interference and avoidance in family, school and community settings. Each of seven severity items is scored on a scale of 1 to 5, with 5 being the most severe and frequent. […]
# [2] = system: children and adolescents with 22q11.2 Deletion Syndrome; experiment: Anxiety, Depression, and Mood Scale (ADAMS), open-label ZYN002 study; type: in vivo, human; settings: Week 6 and Week 14
# Description: as §1
# Anxiety, Depression, and Mood Scale (ADAMS): The Anxiety, Depression, and Mood Scale was completed by the parent/caregiver, with support from the site staff. The ADAMS was used as a comprehensive assessment of anxiety, depression, and mood among the patients. […]
# (§2) Statistical Methods: Descriptive statistics (mean, median, standard deviation, minimum, and maximum) for continuous data and number (n) and percentage (%) for categorical data were determined for all efficacy and safety parameters.
# children and adults = settings: in vivo; cited from earlier work
# [3] = system: children and adolescents with 22q11.2 Deletion Syndrome; experiment: Safety and tolerability monitoring, open-label ZYN002 study; type: in vivo, human; settings: up to 14 weeks
# Description: as §1
# Safety Monitoring: Patient safety was monitored at each study visit using standard measures, including physical and neurological exams, examination of skin at application sites for irritation, vital signs, 12-lead ECGs, the C-SSRS, safety laboratory tests, and AE monitoring.
# Each application consisted of one sachet of ZYN002 CBD 4.2% concentration, containing 2.98 g of gel. At Week 6, if the patient had less than a 25% improvement from baseline in the ABC-C irritability subscale, the investigator increased the dose as follows: • Patients who weigh ≤35 kg receiving a total daily dose of 250 mg CBD had their daily dose increased to 500 mg. […]
# [4] = system: children and adolescents with 22q11.2 Deletion Syndrome; experiment: Clinical Global Impression-Improvement (CGI-I), open-label ZYN002 study; type: in vivo, human
# Description: as §1
# Clinical Global Impressions Scale-Improvement: The Clinical Global Impression Scale, Improvement (CGI-I), is commonly used in clinical trials as they allow the clinician to utilize the history from the caregiver and incorporate the score into a clinical rating for the severity of symptoms. CGI-I is a 7-point scale that is used to assess how much the patient's behavioral symptoms associated with 22q11.2 deletion syndrome have improved, or worsened, relative to a baseline assessment at the beginning of the treatment.
# Each application consisted of one sachet of ZYN002 CBD 4.2% concentration, containing 2.98 g of gel. At Week 6, if the patient had less than a 25% improvement from baseline in the ABC-C irritability subscale, the investigator increased the dose as follows: • Patients who weigh ≤35 kg receiving a total daily dose of 250 mg CBD had their daily dose increased to 500 mg. Each application consisted of two sachets of ZYN002 CBD 4.2% concentration, containing 2.98 g of gel. • Patients >35 kg received 250 mg CBD applied Q12H (±2 hours); total daily dose of 500 mg CBD. […]
# as §2
# [5] = system: children and adolescents with 22q11.2 Deletion Syndrome; experiment: Aberrant Behavior Checklist-Community (ABC-C), open-label ZYN002 study; type: in vivo, human; settings: Week 6 and Week 14
# Description: Aberrant Behavior Checklist-Community (ABC-C): The Aberrant Behavior Checklist-Community, 2nd Edition, was completed by the parent/caregiver, with support from the site staff. The ABC-C asks responders to rate behaviors from “0—not at all a problem” to “3—the problem is severe in degree” across 58 questions.
# Each application consisted of one sachet of ZYN002 CBD 4.2% concentration, containing 2.98 g of gel. […]
# [6] = system: adults with social phobia; settings: crossover trial; cited from earlier work
# [7] = cited from earlier work
smiles,measurement,setting,value
"C=C(C)C1CCC(C)=CC1c1c(O)cc(CCCCC)cc1O (stereo not shown) [CBD, 2-[3-methyl-6-(1-methylethenyl)-2-cyclohexen-1-yl]-5-pentyl-1,3-benzenediol]","PARS vs baseline, in words",[1],statistically significant improvements
same,"ADAMS total score and all five subscales vs baseline, in words",[2],statistically significant improvements
same,tolerability in children and adults,children and adults,generally well tolerated
same,tolerability of transdermal administration,[3],well tolerated
same,patients being much improved or very much improved (CGI-I),[4],62.5%
same,"patients rated by clinicians as improved, much-improved or very much improved (CGI-I)",[4],Seventy-five
same,"CGI-I, majority of patients, in words",[4]; Week 6 and Week 14,clinically meaningful improvements
same,"ABC-C all five subscales vs baseline, in words",[5],statistically and clinically meaningful improvements
same,physiological and cognitive indicators of anxiety,[6],significant and clinically meaningful reductions
same,"solubility in water, in words",[7],virtually insoluble in water
